In test [1] the target is DA Transporter (DAT) sites in mouse brain (Mus musculus (Mouse), UniProt Q61327). In words: Ex vivo [3H] WIN 35428 binding to DAT sites in mouse brain after oral dosing. The note with it: mice, 60 min after treatment; for receptor occupancy at 1 mg/kg / receptor occupancy at 3 mg/kg / receptor occupancy at 10 mg/kg / receptor occupancy at 30 mg/kg: mouse.
Test [2] concerns the target T1, Norepinephrine Transporter (NET) sites in mouse brain (Mus musculus (Mouse), UniProt O55192). Kind of test: in vivo. The note with it: po, read-out: NET % Transporter Occupancy.
A further test has as its system Rats. Kind of test: Rat forced swim test. It counts as in vivo.
Test [3] addresses human dopamine transporter (Homo sapiens (Human), UniProt Q01959). In words: Dopamine functional uptake assay, recombinant human transporter in CHO-K1 or HEK293 cells. It counts as cell-based. The conditions noted are these: read-out: hDAT IC50.
For test [4], the system named is mice. Kind of test: Mouse tail suspension test. It counts as in vivo.
Test [5] has as its target 5-HT Transporter (SERT) sites in mouse brain (Mus musculus (Mouse), UniProt Q60857). Kind of test: Ex vivo [3H] citalopram binding to SERT sites in mouse brain after oral dosing. The conditions noted are these: mice, 60 min after treatment; for receptor occupancy at 1 mg/kg / receptor occupancy at 3 mg/kg / receptor occupancy at 10 mg/kg / receptor occupancy at 30 mg/kg: mouse.

Test [6] concerns the target T1, Norepinephrine Transporter (NET) sites in mouse brain. The conditions noted are these: mice, 60 min after treatment.
In test [7] the target is human serotonin transporter (Homo sapiens (Human), UniProt P31645). Kind of test: Serotonin functional uptake assay, recombinant human transporter in HEK-293 cells. It is filed as cell-based. The note with it: Human serotonin transporter uptake; read-out: hSERT IC50.
Test [8] concerns mice. In words: Mouse locomotor activity. It is filed as in vivo.
Test [9] concerns the target rat dopamine reuptake transporter (Rattus norvegicus (Rat), UniProt P23977). In words: Dopamine functional uptake assay, rat striatal synaptosomes. It counts as biochemical. The conditions noted are these: read-out: rDAT IC50.
The target in test [10] is rat serotonin (5-HT) reuptake transporter (Rattus norvegicus (Rat), UniProt P31652). Kind of test: Serotonin functional uptake assay, rat synaptosomes. It counts as biochemical. The conditions noted are these: read-out: rSERT IC50.
The conditions of test [11]: in vivo; cited from earlier work.
The target in test [12] is human norepinephrine reuptake transporter (Homo sapiens (Human), UniProt P23975). The conditions noted are these: cited from earlier work.

These results are taken from US10562878B2, “Cycloalkylamines as monoamine reuptake inhibitors” (Sunovion Pharmaceuticals Inc., priority 2006, dated 2020).

Each structure is given as a SMILES string. Counter-ions that a name gives are not always drawn. Like-named read-outs stand apart in the source and are kept apart here.

Chain of human dopamine transporter (Q01959 whole entry): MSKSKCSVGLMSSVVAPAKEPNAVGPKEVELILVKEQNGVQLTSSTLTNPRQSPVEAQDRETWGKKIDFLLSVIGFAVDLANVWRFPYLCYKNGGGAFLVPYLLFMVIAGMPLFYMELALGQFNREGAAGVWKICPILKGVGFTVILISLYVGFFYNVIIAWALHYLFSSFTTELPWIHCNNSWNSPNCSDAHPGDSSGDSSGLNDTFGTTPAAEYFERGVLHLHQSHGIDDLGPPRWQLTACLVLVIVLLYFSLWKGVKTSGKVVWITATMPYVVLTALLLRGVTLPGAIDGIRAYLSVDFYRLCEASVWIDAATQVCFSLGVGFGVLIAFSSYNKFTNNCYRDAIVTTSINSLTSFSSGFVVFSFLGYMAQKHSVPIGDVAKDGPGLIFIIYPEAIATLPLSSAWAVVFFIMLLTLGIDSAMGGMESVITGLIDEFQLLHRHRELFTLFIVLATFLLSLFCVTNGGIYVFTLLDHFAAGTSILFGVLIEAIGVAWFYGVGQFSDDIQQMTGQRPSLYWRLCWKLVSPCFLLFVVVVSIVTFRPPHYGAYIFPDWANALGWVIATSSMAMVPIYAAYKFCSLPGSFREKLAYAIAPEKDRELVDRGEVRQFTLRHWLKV
Chain of human serotonin transporter (P31645 whole entry): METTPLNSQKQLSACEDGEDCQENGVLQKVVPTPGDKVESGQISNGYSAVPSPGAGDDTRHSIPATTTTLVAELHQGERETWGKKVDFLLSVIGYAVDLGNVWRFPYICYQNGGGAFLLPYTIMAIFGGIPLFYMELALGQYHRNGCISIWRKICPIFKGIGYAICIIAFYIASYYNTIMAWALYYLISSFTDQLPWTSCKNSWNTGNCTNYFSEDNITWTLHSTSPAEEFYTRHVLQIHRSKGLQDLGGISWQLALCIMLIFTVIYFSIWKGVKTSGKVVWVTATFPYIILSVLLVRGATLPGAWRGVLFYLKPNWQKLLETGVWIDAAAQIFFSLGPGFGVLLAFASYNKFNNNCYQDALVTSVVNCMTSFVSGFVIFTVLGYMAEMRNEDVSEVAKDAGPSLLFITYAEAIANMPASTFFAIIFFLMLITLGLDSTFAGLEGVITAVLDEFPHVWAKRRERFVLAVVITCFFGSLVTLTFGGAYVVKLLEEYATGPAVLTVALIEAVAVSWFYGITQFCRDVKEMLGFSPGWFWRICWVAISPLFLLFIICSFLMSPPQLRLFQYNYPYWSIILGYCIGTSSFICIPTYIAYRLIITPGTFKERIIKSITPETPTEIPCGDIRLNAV

Broadly, the IC50 is the midpoint of a concentration-inhibition curve. On to `CN(C)C[C@]1(c2ccc(Cl)c(Cl)c2)CCCC[C@H]1O` (relative stereo) [153 E2, trans-2-(3,4-dichlorophenyl)-2-((dimethylamino)methyl)cyclohexanol], for which the “DAT Mean Specific Binding ± S.E.M.” value was determined as 22774 ± 916 dpm in [1] (1 mg/kg PO), 24159 ± 1313 dpm in [1] (3 mg/kg PO) and 16194 ± 1293 dpm in [1] (30 mg/kg PO). In addition, the receptor occupancy at 1 mg/kg in test [1] (1 mg/kg PO) was -10%; in test [2], 6%; in test [5] (1 mg/kg PO), -1%. The receptor occupancy at 3 mg/kg was -16% in [1] (3 mg/kg PO), 10% in test [2] and 8% in [5] (3 mg/kg PO). The figures for the receptor occupancy at 10 mg/kg in test [1] (10 mg/kg PO), in [2] and in [5] (10 mg/kg PO) were -6%, 9% and 28%, respectively. For the same compound, the results for the receptor occupancy at 30 mg/kg in test [1] (30 mg/kg PO), in test [2] and in test [5] (30 mg/kg PO) were 22%, 40% and 58%, respectively. In addition, the “Rat Forced Swim Climbing (Means ± S.E.M.)” value in the test on Rats (3 mg/kg PO) was found to be 8.8 ± 1.5; with Rats (10 mg/kg PO), 11.7 ± 1.8; in the test with Rats (30 mg/kg PO), 22.2 ± 5.2. Moreover, the entries for the “Rat Forced Swim Immobility (Means ± S.E.M.)” value in the test on Rats (3 mg/kg PO), in the test with Rats (10 mg/kg PO) and in the test on Rats (30 mg/kg PO) were 49.9 ± 1.7, 44.0 ± 2.1 and 31.3 ± 6.7, respectively. Besides, the “Rat Forced Swim Swimming (Means ± S.E.M.)” value in the test on Rats (3 mg/kg PO) stood at 1.9 ± 0.8; with Rats (10 mg/kg PO), 4.3 ± 1.1; with Rats (30 mg/kg PO), 4.6 ± 1.3. In addition, the results for the IC50 in [3] and in test [7] were 25 nM and 64 nM, respectively. The “Mouse Tail Suspension Mean Immobility Time ± S.E.M.” value with mice [4] (10 mg/kg PO) is 170.2 ± 6.3; with mice [4] (30 mg/kg PO), 154.5 ± 8.4. Also, the “SERT Mean Specific Binding ± S.E.M.” value in test [5] (1 mg/kg PO) worked out at 3271 ± 199 dpm; in test [5] (3 mg/kg PO), 2968 ± 100 dpm; in test [5] (10 mg/kg PO), 2327 ± 150 dpm; in test [5] (30 mg/kg PO), 1359 ± 89 dpm. The “NET Mean Specific Binding ± S.E.M.” value in test [6] (1 mg/kg PO) is reported as 1804 ± 79 dpm; in test [6] (3 mg/kg PO), 1726 ± 44 dpm; in test [6] (10 mg/kg PO) it was 1734 ± 62 dpm; in test [6] (30 mg/kg PO), 1140 ± 53 dpm.
Consider `CN(C)C[C@]1(c2ccc3ccccc3c2)CCCC[C@H]1O` (relative stereo) [164 E1, trans-2-((dimethylamino)methyl)-2-(naphthalen-2-yl)cyclohexanol], for which the “DAT Mean Specific Binding ± S.E.M.” value stood at 23574 ± 1313 dpm in [1] (1 mg/kg PO), 18002 ± 1516 dpm in [1] (3 mg/kg PO), 17727 ± 2871 dpm in test [1] (10 mg/kg PO) and 15630 ± 1085 dpm in [1] (30 mg/kg PO). Besides, the receptor occupancy at 1 mg/kg in test [1] (1 mg/kg PO) is -11%; in test [2], -8%; in [5] (1 mg/kg PO), 20%. Moreover, the receptor occupancy at 3 mg/kg was 16% in [1] (3 mg/kg PO), -1% in test [2] and 35% in [5] (3 mg/kg PO). The receptor occupancy at 10 mg/kg in test [1] (10 mg/kg PO) was 17%; in test [2], 13%; in test [5] (10 mg/kg PO), 78%. For the same compound, the receptor occupancy at 30 mg/kg in test [1] (30 mg/kg PO) is 27%; in [2], 41%; in test [5] (30 mg/kg PO) it was 92%. Besides, the “Mouse Locomotor Activity Total Distance Traveled ± S.E.M.” value in the test with mice [8] (10 mg/kg PO) was 210.3 ± 40.4. In addition, the entries for the “Mouse Tail Suspension Mean Immobility Time ± S.E.M.” value with mice [4] (10 mg/kg PO) and with mice [4] (30 mg/kg PO) were 162.1 ± 4.6 and 155.3 ± 7.8, respectively. The “SERT Mean Specific Binding ± S.E.M.” value in test [5] (1 mg/kg PO) is listed as 2796 ± 133 dpm; in test [5] (3 mg/kg PO), 2273 ± 74 dpm; in test [5] (10 mg/kg PO), 783 ± 61 dpm; in test [5] (30 mg/kg PO), 271 ± 50 dpm. The “NET Mean Specific Binding ± S.E.M.” value in [6] (1 mg/kg PO) came to 1122 ± 58 dpm; in test [6] (3 mg/kg PO), 1046 ± 23 dpm; in test [6] (10 mg/kg PO) it was 903 ± 48 dpm; in [6] (30 mg/kg PO) it was 610 ± 59 dpm.
Regarding `CCC(N)C1(c2ccc(Cl)c(Cl)c2)CCCCC1` (single isomer, unassigned) [17 E1, 1-(1-(3,4-dichlorophenyl)cyclohexyl)propan-1-amine], the “Mouse Locomotor Activity Total Distance Traveled ± S.E.M.” value in the test with mice [8] (3 mg/kg PO) worked out at 649.3 ± 78.4; in the test with mice [8] (10 mg/kg PO), 478.3 ± 88.5; in the test on mice [8] (30 mg/kg PO), 428.3 ± 120.6. Besides, the “Mouse Tail Suspension Mean Immobility Time ± S.E.M.” value in the test with mice [4] (3 mg/kg PO) is given as 184.7 ± 9.0; in the test on mice [4] (10 mg/kg PO), 182.6 ± 4.1; with mice [4] (30 mg/kg PO), 150.9 ± 7.8.
As to `CNC(C)C1(c2ccc(Cl)c(Cl)c2)CCCCC1` (single isomer, unassigned) [44 E1, 1-(1-(3,4-dichlorophenyl)cyclohexyl)-N-methylethanamine], the “Mouse Locomotor Activity Total Distance Traveled ± S.E.M.” value in the test on mice [8] (30 mg/kg PO) was 402.3 ± 71.0. Further, in the test with mice [4] (30 mg/kg PO), the “Mouse Tail Suspension Mean Immobility Time ± S.E.M.” value is on record as 120.4 ± 9.0.
Regarding `CN(C)C[C@]1(c2ccc(Cl)c(Cl)c2)CCC[C@H](O)C1` (single isomer, unassigned) [190 E2, Cis-3-(3,4-dichlorophenyl)-3-((dimethylamino)methyl)cyclohexanol], the IC50 in [9] came to 45 nM; in test [10], 120 nM; in test [3] it was 3 nM.
Consider `Clc1ccc(C23CNCC2C3)cc1Cl` (single isomer, unassigned) [DOV 21,947, H-1-(3,4-dichlorophenyl)-3-azabicyclo[3.1.0]hexane], for which the “immobility in the tail suspension test” value in [11] was “dose-dependent reduction in immobility”.
In the case of `CNCC1(c2ccc(Cl)c(Cl)c2)CCCCC1` [Compound 75, 1-(1-(3,4-dichlorophenyl)cyclohexyl)-N-methylmethanamine (hydrochloride)], the “Mouse Locomotor Activity Total Distance Traveled ± S.E.M.” value turned out to be 653.5 ± 48.4 with mice [8] (3 mg/kg PO), 608.8 ± 83.4 in the test with mice [8] (10 mg/kg PO) and 655.3 ± 117.7 in the test with mice [8] (30 mg/kg PO). The “Mouse Tail Suspension Mean Immobility Time ± S.E.M.” value in the test on mice [4] (3 mg/kg PO) is on record as 187.8 ± 9.6; in the test on mice [4] (10 mg/kg PO), 177.7 ± 5.8; with mice [4] (30 mg/kg PO) it was 143.5 ± 5.8.
As to `CN(C)C[C@]1(c2ccc3ccccc3c2)CC[C@](C)(O)CC1` [Compound 225, (1s,4s)-4-((dimethylamino)methyl)-1-methyl-4-(naphthalen-2-yl)cyclohexanol], the “DAT Mean Specific Binding ± S.E.M.” value in test [1] (1 mg/kg PO) came to 19787 ± 3338 dpm; in test [1] (3 mg/kg PO) it was 21666 ± 3698 dpm; in [1] (10 mg/kg PO), 18872 ± 2775 dpm; in [1] (30 mg/kg PO), 14618 ± 1209 dpm. Also, the “Mouse Locomotor Activity Total Distance Traveled ± S.E.M.” value in the test with mice [8] (0.3 mg/kg PO) came to 519.5 ± 56.4; in the test on mice [8] (1 mg/kg PO), 423.4 ± 62.3. Moreover, the “Rat Forced Swim Climbing (Means ± S.E.M.)” value in the test on Rats (3 mg/kg PO) was found to be 8.4 ± 1.7; in the test with Rats (10 mg/kg PO), 11.1 ± 2.7; with Rats (30 mg/kg PO), 25.0 ± 4.6. The “Rat Forced Swim Immobility (Means ± S.E.M.)” value is recorded as 50.8 ± 1.8 with Rats (3 mg/kg PO), 47.6 ± 3.0 in the test with Rats (10 mg/kg PO) and 33.4 ± 4.8 in the test with Rats (30 mg/kg PO). The figures for the “Rat Forced Swim Swimming (Means ± S.E.M.)” value in the test with Rats (3 mg/kg PO), in the test with Rats (10 mg/kg PO) and with Rats (30 mg/kg PO) were 0.8 ± 0.3, 1.2 ± 0.6 and 1.1 ± 0.5, respectively. Further, the IC50 in test [3] was 167 nM. The “Mouse Tail Suspension Mean Immobility Time ± S.E.M.” value in the test on mice [4] (10 mg/kg PO) is recorded as 137.8 ± 5.2; in the test on mice [4] (30 mg/kg PO) it was 136.3 ± 2.5. Also, the “SERT Mean Specific Binding ± S.E.M.” value in [5] (1 mg/kg PO) amounted to 3842 ± 152 dpm; in test [5] (3 mg/kg PO) it was 2118 ± 139 dpm; in test [5] (10 mg/kg PO), 904 ± 35 dpm; in test [5] (30 mg/kg PO), 414 ± 37 dpm. Moreover, the “NET Mean Specific Binding ± S.E.M.” value is 1170 ± 68 dpm in test [6] (1 mg/kg PO), 813 ± 64 dpm in [6] (3 mg/kg PO), 393 ± 21 dpm in [6] (10 mg/kg PO) and 230 ± 33 dpm in test [6] (30 mg/kg PO).
`CN(C)C[C@]1(c2ccc(Cl)c(Cl)c2)CC[C@H](O)CC1` [Compound 288, (1s,4s)-4-(3,4-dichlorophenyl)-4-((dimethylamino)methyl)-cyclohexanol]: the IC50 turned out to be 370 nM in [9], 67 nM in test [10], 22 nM in test [3] and 84 nM in [7].
Regarding `COC(=O)C(c1ccccc1)C1CCCCN1` (stereo not shown) [methylphenidate], the “reported potency (IC50 or Ki), inhibition of human norepinephrine reuptake transporter” value in [12] is reported as 38 nM.
